The record followed here is patent US11021442B2, “Process for the preparation of freeze-dried 2-[(3-aminopropyl)amino] ethanethiol formulation” (CLEVEXEL PHARMA, priority 2016, dated 2021).

The test system of data set [1] is radiation-induced oral mucositis. Description: Second efficacy study, radiation-induced oral mucositis, 18 Gy single fraction (Example F-4). The format is in vivo, mice. The procedure: The experiment was conducted with gels containing 20, 40 or 80 mg/ml Amifostine (corresponding to 12.5, 25 or 50 mg/ml amifostine thiol respectively). A lower dose of irradiation (a single fraction irradiation of 18 Gy) was delivered to the snout, so that all the mice could be kept alive until the end of the experiment. Different amounts of compound were administered to mice (1; 2 or 4 mg per mouse).
The same experimental procedure as for in example F-2 was used. Briefly, mice were anesthetized, Amifostine or Amifostine thiol was delivered 10 minutes later or not depending on the group (gel application or intravenous injection), mice were irradiated dorsally at an 18 Gy dose 30 minutes after the administration of Amifostine or Amifostine thiol and awakened 20 minutes later.
[…] were allocated to 6 groups: • Control (n=6 mice); • Placebo gel (n=6 mice); • Amifostine thiol 20 mg/ml gel (1 mg amifostine/mouse, n=6 mice); • Amifostine thiol 40 mg/ml gel (2 mg amifostine/mouse, n=6 mice); • Amifostine thiol 80 mg/ml gel (4 mg amifostine/mouse, n=6 mice); and • Amifostine intravenous (IV) (20 mg/ml) (4 mg amifostine/mouse, n=5 mice).
For each group, the development of oral mucositis was evaluated on 5 or 6 mice depending on the group. An 18 Gy dose irradiation induced a less severe phenotype than the 20 Gy dose irradiation that was used in the first efficacy experiment.

The test system is the same in data set [2]. Description: Efficacy study, radiation-induced oral mucositis, 20 Gy single fraction (Example F-2). The format is in vivo, C57BL/6 mice. Here is the method: Female C57BL/6 mice (12 weeks old) purchased from Janvier CERT (Le Genest St. Isle, France) were used after an acclimation time of 7 days. They had free access to food (SAFE reference R0340, Augy, France) and water. They were housed on a 12 hours light/dark cycle at a room temperature of 22° C.±2° C. and a relative humidity of 55%±15%.
Irradiation was carried out locally with a X-ray Varian NDI 226 tube (200 kV, 15 mA, 0.2 mm Cu) at a dose rate of 1.33 Gy/min, the rest of the body being protected by a lead shield. Mice were euthanized when body weight loss exceeded 20% of the initial weight for more than 24 hours or in case of severe clinical signs (ethical endpoints). […]
Two parameters were monitored: the body weight and the Parkins score. This represents an arbitrary score system devised by Parkins and co-workers with separate scores for edema and erythema evaluated by macroscopic observation (Parkins, C. S., Fowler, J. F., and Yu, S. (1983). A murine model of lip epidermal/mucosal reactions to X-irradiation. Radiotherapy and oncology: Journal of the European Society for Therapeutic Radiology and Oncology 1, 159-165). […]
The Parkins score is calculated as follows: “Parkins score”=edema score+erythema score.
A single dose irradiation was delivered to the snout of mice. This induced a mucosal/epidermal lip reaction that was monitored through macroscopic observation and scoring. […]

Data set [3] shares this test system. Description: Third efficacy study, radiation-induced oral mucositis, four fractions of 8 Gy (Example F-6). The format is in vivo, mice. The source says: Four fractions of 8 Gy were delivered for four consecutive days (everyday from day 0 to day 3; day 0 corresponding to the first day of treatment) to the snout. The fractionation scheme of four fractions of 8 Gy was chosen, because it is biologically equivalent to 1 fraction of 18 Gy (Biologically Effective Dose: BED 120 Gy). […] Thus, the compound was applied 4 times for four consecutive days. For each day, a similar experimental procedure as for in example F-2 was used. […] The same experimental procedure was repeated for 4 consecutive days.

Data set [4] in a line: Stability of lyophilized powder of aminothiol (WR-1065) at 25° C./60% RH under argon. The format is physicochemical. Here is the method:
A stability study is performed to compare stability of: • WR-1065 obtained by conversion of amifostine (350 mg/ml or 500 mg/ml) in acidic condition (respectively HCl 1M or HCl 4M), diluted in water or in P407/P188 mixture and then lyophilized (based on examples described in parts A & B), and • WR-1065 hydrochloride salt crystalline powder.
Stability is assessed by analysis of samples stored under argon atmosphere at 25° C./60% RH. The aim of argon is to provide two materials under same stability condition.

The mark [5] stands for this setting: T1m-25° C./60% RH, under argon atm.
The mark [6] stands for this setting: T15d-25° C./60% RH, under argon atm.

`NCCCNCCSP(=O)(O)O` [Amifostine IV, Amifostine]: the “effect on mucositis peak and healing period, in words” value in data set [1] is listed as “healing period was nearly absent”. The “day of acute peak of mucosal reaction” value in data set [1] (IV 4 mg amifostine/mouse) was 12 days; in data set [3] (IV 2 mg amifostine/mouse), ~15 days. Moreover, the “Parkins score at the peak of mucosal reaction” value is 2.2 in data set [1] (gels 1, 2 or 4 mg amifostine/mouse, IV 4 mg/mouse, 30 minutes before irradiation) and 2.6 in data set [3] (day 0 to day 3, 2 mg amifostine per mouse before each fraction, thiol gel = Gel n°9). Besides, in data set [2] (20 Gy single fraction to snout, 4 mg amifostine/mouse 30 minutes before irradiation, thiol gel = Gel n°1, Amifostine gel = Gel n°2), the “effect on development and intensity of mucositis (Parkins score), in words” value is reported as “mucosal reaction of moderate intensity”. For the same compound, the “day after irradiation at which edema and erythema completely disappeared” value in data set [2] (20 Gy single fraction, 4 mg amifostine/mouse IV) stood at 20 days.
In the case of `NCCCNCCS` [WR-1065•2HCl native, 2-[(3-aminopropyl)amino]ethanethiol], in data set [4] (T0, under argon atm.), the Amifostine worked out at 0%, the Aminothiol was found to be 99.7%, the Disulfides is 0.3% and the Unknow result is on record as “<LOQ”. In data set [4] (setting [5]), this compound returned an Amifostine of 0%, an Aminothiol of 99.3%, a Disulfides of 0.5% and an Unknow of 0.2%. For the same compound, in data set [4] (setting [6]), the Amifostine came to 0%, the Aminothiol is 99.6%, the Disulfides was determined as 0.4% and the Unknow entry was “<LOQ”.
